In patent publication US5712253A, “Macrocyclic 13-membered ring derivatives of erythromycins A and B” (Abbott Laboratories, priority 1996, dated 1998):
Values after ≈ are worked out from the molar mass of the structure shown. Where two headings read alike, the source gives them in different places.

Tests used:
[1] = system: rabbit duodenal smooth muscle; test: In vitro prokinetic activity: contraction of smooth muscle strips isolated from rabbit small intestine (duodenum); format: cell-based
Description: The compounds of the present invention were tested in vitro for their ability to induce contraction of smooth muscle strips isolated from rabbit small intestine using the following procedure:
Rabbits were sacrificed and 15 cm of duodenum was rapidly removed and placed in ice-cold modified Ringers solution (120 mM sodium chloride, 25 mM sodium bicarbonate, 4.7 mM potassium chloride, 1.25 mM calcium chloride, 1.20 mM magnesium sulfate and 5.6 mM glucose). The longitudinal muscle layer was separated from the circular muscle by blunt dissection and cut into strips of 10×20 mm. Double-folded strips were vertically suspended between two hooks in 10 mL tissue baths with a mechanical preload of 1 g. The upper hook was connected to an […] force transducer, and its displacement was recorded on a Grass polygraph. The tissue baths contained modified Ringers solution at 37° C. and were continuously gassed with 95% oxygen/5% carbon dioxide in order to maintain the pH at 7.5.
After a stabilization period of at least 60 minutes, a contractility dose-response series was performed by adding increasing final concentrations of methacholine (10^-7 M, 10^-6 M and 10^-5 M) in volumes of 100 μL. The bath solutions were replaced at least three times between doses.
After the methacholine dose-response series was completed, a test compound dose response curve was initiated by the same procedure used for the methacholine dose-response series, with at least five concentrations of test compound within the range of 10^-10 M to 10^-4 M. The tissues were washed repeatedly between doses, and the studies were completed by recording the contractile response to 10^-5 M methacholine to ascertain integrity of the muscle preparation. Contractile responses were expressed as percent of maximal methacholine induced contraction. The concentration of test compound which produces half of the maximal contraction (ED50 value) and the negative logarithm of the ED50 value (pED50) were estimated from the dose-response curves. The pED50 values were compared to motilin, (pED50 : 8.10) a known gastrointestinal prokinetic agent.

motilin receptors = biological target: T1, motilin receptors (Oryctolagus cuniculus, UniProt G1T803); test: Motilin receptor binding activity ([^125 I]-motilin displacement, rabbit antral smooth muscle)
T1 construct: Motilin receptors were isolated from rabbit antral smooth muscle tissue; from tissue; host or cells: rabbit antral smooth muscle tissue
From the text: This ability of the compounds to bind strongly to motilin receptors and the effective absence of elicitation of contractile activity by estimated therapeutic concentration of these compounds in rabbit duodenal smooth muscle together constitute motilin antagonist activity of the compounds.

Escherichia coli SS = test: Antibacterial activity (agar dilution method), MIC; format: cell-based; conditions: unit assumed
Description: (§1) Compounds of the invention were next tested for antibacterial potency, such activity being regarded as an undesirable side effect of motilin […] therapy. Assays were conducted using methodology well-known in the art (the agar dilution method).

[2] = system: Pseudomonas eruginosa K799/WT; test: Antibacterial activity (agar dilution method), MIC; format: cell-based; conditions: unit assumed
Description: as §1

[3] = system: Streptococcus aureus A5177; test: Antibacterial activity (agar dilution method), MIC; format: cell-based; conditions: unit assumed
Description: as §1

[4] = system: Streptococcus aureus ATCC 7538P; test: Antibacterial activity (agar dilution method), MIC; format: cell-based; conditions: unit assumed
Description: as §1

[5] = system: Streptococcus bovis ATCC 8043; test: Antibacterial activity (agar dilution method), MIC; format: cell-based; conditions: unit assumed
Description: as §1

[6] = system: Streptococcus pyogenes EES61; test: Antibacterial activity (agar dilution method), MIC; format: cell-based; conditions: unit assumed
Description: as §1

T1 sequence (G1T803 1-400): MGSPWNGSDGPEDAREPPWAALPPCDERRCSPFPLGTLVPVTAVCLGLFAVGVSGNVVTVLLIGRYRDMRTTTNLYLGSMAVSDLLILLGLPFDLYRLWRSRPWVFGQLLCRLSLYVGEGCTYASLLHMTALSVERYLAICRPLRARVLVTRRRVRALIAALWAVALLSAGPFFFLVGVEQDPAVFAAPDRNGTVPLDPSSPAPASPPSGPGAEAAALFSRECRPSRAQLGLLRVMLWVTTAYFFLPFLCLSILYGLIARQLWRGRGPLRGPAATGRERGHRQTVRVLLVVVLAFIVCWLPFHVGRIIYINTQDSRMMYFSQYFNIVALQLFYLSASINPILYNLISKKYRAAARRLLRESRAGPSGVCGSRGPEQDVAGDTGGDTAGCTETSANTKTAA

Structure (SMILES)	pED50 (negative logarithm of the concentration producing half of the maximal contraction) ([1]; rabbit duodenum strips, 37° C., percent of maximal methacholine induced contraction)	Kd (motilin receptors)	EC50 ([1]; Oryctolagus cuniculus, rabbit duodenum strips, 37° C., percent of maximal methacholine induced contraction, read-out: pED50 (negative logarithm of the concentration producing half of the maximal contraction) (converted))	agonism for induction of contractile activity (in words) ([1]; rabbit duodenal smooth muscle)	potency relative to motilin, induction of contractile activity ([1]; rabbit duodenal smooth muscle, pED50 compared to motilin)	MIC (Escherichia coli SS)	MIC [2]	MIC [3]	MIC [4]	MIC [5]	MIC [6]	motilin receptor binding (in words) (motilin receptors; rabbit antral smooth muscle, [^125 I]-motilin)	Kd (motilin receptors; rabbit antral smooth muscle, [^125 I]-motilin, read-out: pKd, motilin binding (negative logarithm of the concentration displacing 50% of bound [^125 I]-motilin) (converted))
CC[C@H](C)[C@H](NC(=O)[C@@H]1CCCN1C(=O)[C@@H](NC(=O)[C@@H](N)Cc1ccccc1)C(C)C)C(=O)N[C@@H](Cc1ccccc1)C(=O)N[C@H](C(=O)N[C@@H](Cc1ccc(O)cc1)C(=O)NCC(=O)N[C@@H](CCC(=O)O)C(=O)N[C@@H](CC(C)C)C(=O)N[C@@H](CCC(N)=O)C(=O)N[C@@H](CCCNC(=N)N)C(=O)N[C@@H](CCSC)C(=O)N[C@@H](CCC(N)=O)C(=O)N[C@@H](CCC(=O)O)C(=O)N[C@@H](CCCCN)C(=O)N[C@@H](CCC(=O)O)C(=O)N[C@@H](CCCNC(=N)N)C(=O)N[C@@H](CC(N)=O)C(=O)N[C@@H](CCCCN)C(=O)NCC(=O)N[C@@H](CCC(N)=O)C(=O)O)[C@@H](C)O [motilin, reference compound]	8.10	0.794 nM	–	–	–	–	–	–	–	–	–	–	–
CC[C@H]1OC(=O)[C@H](C)[C@@H](O[C@H]2C[C@@](C)(OC)C[C@H](C)O2)[C@H](C)[C@@H](O[C@@H]2O[C@H](C)C[C@H](N(C)CC)[C@H]2O)[C@@]2(C)CC(C)=C(O2)C(C(C)F)[C@H]1C (stereo partly shown) [Example 1, Compound of Formula (I); R=H; R^1 =methyl; R^2 =ethyl; R^3 =H; X=F]	–	–	> 100000 nM	very weak agonist	more than four orders of magnitude less potent than motilin	> 100 µg/mL	> 100 µg/mL	50 µg/mL	50 µg/mL	25 µg/mL	25 µg/mL	binds strongly to motilin receptors	11.5 nM
CC[C@H]1OC(=O)[C@H](C)[C@@H](O[C@H]2C[C@@](C)(OC)[C@@H](O)[C@H](C)O2)[C@H](C)[C@@H](O[C@@H]2O[C@H](C)C[C@H](N(C)C)[C@H]2O)[C@](C)(O)C[C@@H](C)C(=O)[C@H](C)[C@@H](O)[C@]1(C)O [Erythromycin]	–	–	–	–	–	0.39 µg/mL (≈ 0.531 µM)	0.78 µg/mL (≈ 1.06 µM)	6.2 µg/mL (≈ 8.45 µM)	0.2 µg/mL (≈ 0.273 µM)	0.05 µg/mL (≈ 0.0681 µM)	0.05 µg/mL (≈ 0.0681 µM)	–	–
